Numbers after ± are expanded uncertainties.

The conditions of the data set: 298 K; 101.33 kPa; Crystal; X-ray diffraction.

In general, mass density refers to mass per unit of volume. For `O=P([O-])([O-])[O-].[Sm+3]` [samarium phosphate], the mass density amounted to 1428 ± 2 kg/m3. `O=P([O-])([O-])[O-].[Eu+3]` [europium phosphate]: the mass density was found to be 1476 ± 2 kg/m3.
